According to US20230322805A1, “NOVEL PYRIMIDODIAZEPINE DERIVATIVES OR USES THEREOF” (SPARK BIOPHARMA, INC., priority 2020, published 2023):

Assays:
[1] = system: acute Alzheimer's mouse model; assay: Acute Alzheimer's mouse model (acquisition and probe test); format: in vivo
Procedure: 7-1. Potential therapeutic effect of SB1617 in an acute Alzheimer's mouse model was identified, and the design for the experiment is schematically shown in FIG. 40
7-3. As a result of confirming the treatment efficacy through a probe test, after removing the platform, it was performed by recording how many times the mouse passed the position where the platform was […]

[2] = molecular target: T1, PDIA3 (Homo sapiens, UniProt P30101); assay: TS-FITGE thermal stability shift; format: binding; design: endogenous in cells; host or cells: HEK293 BiFC-tau cells (TS-FITGE, CETSA, PEG-maleimide assay); conditions: 10 μM, 200 nM thapsigargin, 3 hours, HEK293 BiFC-tau cells
T1 sequence (P30101 25-505): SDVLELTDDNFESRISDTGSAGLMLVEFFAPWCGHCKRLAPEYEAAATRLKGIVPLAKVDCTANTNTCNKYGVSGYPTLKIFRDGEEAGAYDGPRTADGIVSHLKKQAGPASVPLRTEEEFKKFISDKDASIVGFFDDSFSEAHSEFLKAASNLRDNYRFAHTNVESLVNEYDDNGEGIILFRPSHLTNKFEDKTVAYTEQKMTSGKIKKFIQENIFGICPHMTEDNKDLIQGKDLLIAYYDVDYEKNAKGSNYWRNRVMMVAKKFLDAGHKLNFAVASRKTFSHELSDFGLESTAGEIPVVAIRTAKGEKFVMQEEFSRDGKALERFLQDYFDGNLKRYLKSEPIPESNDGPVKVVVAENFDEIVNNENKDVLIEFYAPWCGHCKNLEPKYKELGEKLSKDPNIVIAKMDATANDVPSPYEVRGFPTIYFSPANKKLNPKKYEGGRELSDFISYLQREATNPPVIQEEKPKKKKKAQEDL
Procedure: HEK293 BiFC-tau cells were treated with dimethylsulfoxide (DMSO, 0.1%) and a compound according to the present invention (10 μM) in the presence of thapsigargin (200 nM) for 3 hours. The cell suspension was heated at the indicated temperature range for 3 minutes and then at 25° C. for 3 minutes. The heated cells were washed with PBS and resuspended in lysis buffer A (0.4% NP-40 in PBS supplemented with protease inhibitor cocktail). For cell lysis, cell suspensions were freeze-thawed in liquid nitrogen three times. The cell lysate was washed by centrifugation at 20000 g, 4° C. for 20 minutes. Protein concentration of the soluble fraction was quantified by Pierce BCA protein assay. After precipitating 50 μg of protein with cold acetone, it was centrifuged at […] and 4° C. for 7 minutes. The residual pellet was resuspended in 10 μl of conjugation buffer (30 mM Tris-HCl at pH 8.6, 30 mM thiourea, 7 M urea and 4% w/v CHAPS). 1 μl of 0.4 mM Cy2-N-hydroxysuccinimide(Cy2-NHS) (for DMSO-treated group), Cy3-NHS (for SB1607-treated group) or Cy5-NHS (for SB1617-treated group) was mixed with the protein and incubated at 4° C. for 45 minutes. […] Protein spot locations and fluorescence signals were analyzed with DeCyder 2D software ver. […]

CN(Cc1ccc(Cl)cc1)c1ncnc2c1[C@@H]1OC[C@H](CN2)N1S(=O)(=O)c1ccc([N+](=O)[O-])cc1 [Compound 117]
learning ability (Acquisition test), rank order ([1]; acute Alzheimer's mouse model): WT >Donepezil >SB-1617>Vehicle | probe test, number of times of entering the SW quadrant space ([1]; compared to the vehicle): significantly higher value | probe test, number of times passing the virtual platform ([1]; compared to the vehicle): significantly higher value | probe test, time to reach the platform ([1]; compared to the vehicle): significantly lower value | probe test, percentage (%) of the time spent in the quadrant where the platform exists ([1]; mouse, in vivo): remembered the location of the platform well | thermal stability of protein (TS-FITGE) [2]: thermal stability of the protein was improved
